14 molecules from ChEMBL document CHEMBL3259552, “Tetra-substituted imidazoles as a new class of inhibitors of the p53-MDM2 interaction” (Bioorg Med Chem Lett, 2014) can be followed below.

By pIC50 is commonly meant the negative decadic logarithm of the IC50, by convention in mol/L.

pIC50: −log10 of the molar value.

Assay [1] deals with E3 ubiquitin-protein ligase Mdm2 (Homo sapiens, UniProt Q00987). Description: Inhibition of MDM2 (unknown origin) (2 to 188) assessed as inhibition of p53-MDM2 interaction by TR-FRET assay.
Assay [2] in a line: Antiproliferative activity against p53-deficient human Saos2 cells after 72 hrs by fluorescence plate reader analysis. The assay is classed as functional, cell-based. As to conditions: SAOS-2, 72 h.
In assay [3] the test system is SJSA-1. Description: Antiproliferative activity against human SJSA1 cells expressing wild-type p53 after 72 hrs by fluorescence plate reader analysis. It counts as functional, cell-based. The note with it: SJSA-1, 72 h.

Chain of E3 ubiquitin-protein ligase Mdm2 (Q00987 whole entry): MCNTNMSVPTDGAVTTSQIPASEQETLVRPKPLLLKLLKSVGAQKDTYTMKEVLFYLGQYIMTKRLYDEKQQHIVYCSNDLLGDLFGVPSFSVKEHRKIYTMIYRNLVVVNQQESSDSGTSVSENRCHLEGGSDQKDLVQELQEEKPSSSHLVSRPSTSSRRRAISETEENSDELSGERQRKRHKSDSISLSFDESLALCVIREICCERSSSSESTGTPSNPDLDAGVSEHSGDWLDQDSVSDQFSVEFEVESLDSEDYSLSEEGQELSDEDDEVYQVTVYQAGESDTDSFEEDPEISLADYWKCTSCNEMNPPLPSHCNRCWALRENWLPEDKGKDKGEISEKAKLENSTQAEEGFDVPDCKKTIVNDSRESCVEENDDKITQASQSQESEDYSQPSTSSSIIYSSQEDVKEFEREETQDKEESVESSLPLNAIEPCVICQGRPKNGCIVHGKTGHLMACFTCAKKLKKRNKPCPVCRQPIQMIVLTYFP

Turning to `O=C(O)c1nc(-c2ccccc2)n(-c2cccc(Cl)c2)c1-c1cccc(Cl)c1`, the negative logarithm of the IC50 (pIC50) in assay [1] is 6.92. `Cc1ccc(Cl)cc1-n1c(-c2ccccc2)nc(C(=O)O)c1-c1cccc(Cl)c1`: the pIC50 was below 4.52 in assay [2] and 4.79 in assay [3]. Taken in the same sequence, the figures for `O=C(O)c1nc(-c2ccccc2)n(-c2cccc(Cl)c2F)c1-c1cccc(Cl)c1` were below 4.52 and 4.91. On the same counts, the results for `Cc1cccc(-c2nc(C(=O)O)c(-c3cccc(Cl)c3)n2-c2cc(Cl)ccc2C)c1` are below 4.52 and 4.99. In the case of `O=C(O)c1nc(-c2ccccc2)n(-c2cccc(Cl)c2F)c1-c1ccc(F)c(Cl)c1`, the figures for the pIC50 in assay [2] and in assay [3] were below 4.52 and 4.85, respectively.

Turning to `O=C(O)c1nc(C2CCCCC2)n(-c2cccc(Cl)c2F)c1-c1ccc(F)c(Cl)c1`, the figures for the pIC50 in assay [2] and in assay [3] were below 4.52 and 4.88, respectively. On the same counts, the results for `NC(=O)c1nc(C2CCCCC2)n(-c2cccc(Cl)c2F)c1-c1ccc(F)c(Cl)c1` are 4.54 and 5.39.

On to `Fc1ccc(-c2c(-c3nnn[nH]3)nc(C3CCCCC3)n2-c2cccc(Cl)c2F)cc1Cl`, for which the negative logarithm of the IC50 (pIC50) in assay [2] was below 4.52; in assay [3], 5.36. On to `Cc1nnc(-c2nc(C3CCCCC3)n(-c3cccc(Cl)c3F)c2-c2ccc(F)c(Cl)c2)o1`, for which the figures for the negative-log IC50 (pIC50) in assay [2] and in assay [3] were below 4.52 and 5.23, respectively. Taken in the same sequence, the figures for `Nc1nnc(-c2nc(C3CCCCC3)n(-c3cccc(Cl)c3F)c2-c2ccc(F)c(Cl)c2)o1` were below 4.52 and 5.46.

For the molecule `CNC(=O)Cc1ccc(Cl)c(F)c1-n1c(C2CCCCC2)nc(-c2nnc(N)o2)c1-c1ccc(F)c(Cl)c1`, the results for the negative-log IC50 (pIC50) in assay [2] and in assay [3] were 4.62 and 5.85, respectively. On the same counts, the results for `Nc1nnc(-c2nc(C3CCCCC3)n(-c3c(CC(=O)Nc4ccccc4)ccc(Cl)c3F)c2-c2ccc(F)c(Cl)c2)o1` are 4.52 and 5.60.

As to `Nc1nnc(-c2nc(C3CCCCC3)n(-c3c(CC(=O)NC4CCCCC4)ccc(Cl)c3F)c2-c2ccc(F)c(Cl)c2)o1`, the pIC50 in assay [2] is 4.55; in assay [3] it was 5.85. For `CC(C)(C)NC(=O)Cc1ccc(Cl)c(F)c1-n1c(C2CCCCC2)nc(-c2nnc(N)o2)c1-c1ccc(F)c(Cl)c1`, the values for the pIC50 in assay [2] and in assay [3] were 4.64 and 6.30, respectively.
